Measurements from paper PMC13626384 (Journal of medicinal chemistry, 2025).
Read-outs that look alike come from different tables or passages of the source.

Columns and labels:
SF188 cell line = test: Cytotoxicity against SF188 cells; assay type: cell-based, human
H460 cell line = test: Cytotoxicity against H460 cells; assay type: cell-based; conditions: read-out: H460 IC50; non-small cell lung cancer cell line
in vitro = conditions: mouse liver microsomes
[1] = Liver microsomal stability; conditions: mouse liver microsomes
Plasma stability = assay type: in vitro ADME; conditions: for Plasma Stability % remaining: mouse plasma
[2] = biological target: human immunoproteasome (i20S) β1 (Homo sapiens, UniProt P28065+P40306); test: Proteasome subunit inhibition, i20S β1; assay type: biochemical; conditions: read-out: i20S β1 IC50 ± SD; read 60 to 90 minutes after start
[3] = biological target: human immunoproteasome (i20S) β2 (Homo sapiens, UniProt P40306+P49720); test: Proteasome subunit inhibition, i20S β2; assay type: biochemical; conditions: read-out: i20S β2 IC50 ± SD; read 60 to 90 minutes after start
D283-med cell line = test: Cytotoxicity against D283-med cells; assay type: cell-based, human; conditions: read-out: D283-med IC50; medulloblastoma cell line
[4] = biological target: human immunoproteasome (i20S) β5 (Homo sapiens, UniProt P20618+P28062); test: Proteasome subunit inhibition, i20S β5; assay type: biochemical; conditions: read-out: i20S β5 IC50 ± SD; read 60 to 90 minutes after start
[5] = PAMPA-BBB permeability assay; conditions: PAMPA-BBB
Caco-2 cells = test: Caco-2 cell permeability and efflux; assay type: in vitro ADME, human; conditions: for Efflux Ratio: Caco-2; for % Recovery (A-B): Caco-2, A-B direction; for % Recovery (B-A): Caco-2, B-A direction; for Pe (A-B): Caco-2, apical to basolateral; for Pe (B-A): Caco-2, basolateral to apical
[6] = In vivo pharmacokinetics, plasma and brain; set-up: species or system Male C57BL/6 mice; conditions: mice, 10 mg/kg i.v.
[7] = read-out: SF188 IC50, glioblastoma cell line
[8] = pretreated with tariquidar, 0.5 h

| Microsomal Stability Clearance Category [1] | IC50 [2] [nM] | IC50 [3] [nM] | IC50 [4] [nM] | % Recovery [5] [%] | Mean Permeability [5] | Pe (effective permeability) [5] | Plasma Stability % remaining (Plasma stability; after 5 hr) | Compound | IC50 (SF188 cell line; [7]) [nM] | IC50 (H460 cell line) [nM] | IC50 (D283-med cell line) [nM] | Microsomal Stability mCLint [1] [µL/min/mg] | Plasma Stability % remaining (Plasma stability; after 2 hr) [after 2 hr %] | Efflux Ratio (Caco-2 cells) | % Recovery (A-B) (Caco-2 cells) [%] | % Recovery (B-A) (Caco-2 cells) [%] | Pe (A-B) (Caco-2 cells) | Pe (B-A) (Caco-2 cells) | further results |
| --- | --- | --- | --- | --- | --- | --- | --- | --- | --- | --- | --- | --- | --- | --- | --- | --- | --- | --- | --- |
| High |  |  |  |  |  |  |  | CC(C)C[C@H](NC(=O)C(CSc1c(F)c(F)c(F)c(F)c1F)NC(=O)[C@@H](NC(=O)CCc1ccccc1)C(C)C)C(=O)[C@@]1(C)CO1 (stereo in doubt) [Compound 2, (S)-3-Methyl-N-((S)-1-(((S)-4-methyl-1-((R)-2-methyloxiran-2-yl)-1-oxopentan-2-yl)amino)-1-oxo-3-((perfluorophenyl)thio)propan-2-yl)-2-(3-phenylpropanamido)butanamide] | 132 ± 22 | 632 ± 167 |  |  |  |  |  |  |  |  | IC50 (SF188 cell line; Homo sapiens, SF-188, read-out: SF188 IC50, glioblastoma cell line): < 200 nM; half-life (in vitro): < 5 min; remaining at 2 h (Plasma stability; mouse, plasma, Plasma Stability % remaining, after 2 hr): > 99%; remaining at 5 h (Plasma stability; mouse, plasma, Plasma Stability % remaining, after 5 hr): > 75% |
|  | 310 ± 39.5 | 1060 ± 171 | 858 ± 342 | 53 | 3.75 10^−6 cm/sec | around 4 10^−6 cm s^−1 | more than 75% | CC(C)C[C@H](NC(=O)[C@@H]1Cc2c(F)c(F)c(c(F)c2F)Sc2cccc(c2)CC(=O)N[C@@H]([C@@H](C)O)C(=O)N1)C(=O)[C@@]1(C)CO1 [Compound 14, (5S,8S)-3^2,3^3,3^5,3^6-Tetrafluoro-8-((R)-1-hydroxyethyl)-N-((S)-4-methyl-1-((R)-2-methyloxiran-2-yl)-1-oxopentan-2-yl)-7,10-dioxo-2-thia-6,9-diaza-1(1,3),3(1,4)-dibenzenacycloundecaphane-5-carboxamide] | 40 ± 9 | 186 ± 52 | 20 ± 1 |  |  |  |  |  |  |  |  |
| Medium | 99 ± 8.4 | 45.3 ± 3.1 | 63.9 ± 7.2 | 44 | 3.43 10^−6 cm/sec | around 4 10^−6 cm s^−1 | more than 75% | CC(C)C[C@H](NC(=O)[C@@H]1CSCCCCCCCCCC(=O)N[C@@H](C(C)C)C(=O)N1)C(=O)[C@@]1(C)CO1 [Compound 39] | 20 ± 3 | 79 ± 21 | 14.8 ± 2.3 | 33 | 87 | 1.5 | 67 | 74 | 9.8 10^−6 cm/sec | 14.6 10^−6 cm/sec | Microsomal Stability t1/2 [1]: 42 min |

| Compound | Microsomal Stability Clearance Category [1] | IC50 [2] [nM] | IC50 [3] [nM] | IC50 [4] [nM] | % Recovery [5] [%] | Mean Permeability [5] | Pe (effective permeability) [5] | Plasma Stability % remaining (Plasma stability; after 5 hr) | IC50 (SF188 cell line; [7]) [nM] | IC50 (H460 cell line) [nM] | IC50 (D283-med cell line) [nM] | Microsomal Stability mCLint [1] [µL/min/mg] | Plasma Stability % remaining (Plasma stability; after 2 hr) [after 2 hr %] | Efflux Ratio (Caco-2 cells) | % Recovery (A-B) (Caco-2 cells) [%] | % Recovery (B-A) (Caco-2 cells) [%] | Pe (A-B) (Caco-2 cells) | Pe (B-A) (Caco-2 cells) | further results |
| --- | --- | --- | --- | --- | --- | --- | --- | --- | --- | --- | --- | --- | --- | --- | --- | --- | --- | --- | --- |
| S)-N-((S)-4-Methyl-1-((R)-2-methyloxiran-2-yl)-1-oxopentan-2-yl)-8,11-dioxo-2-oxa-9,12-diaza-1(1,4)-benzenacyclotetradecaphane-13-carboxamide [Compound 35] | Low | 78.2 ± 5.3 | 1750 ± 240 | 1900 ± 587 | 100 | 6.81 10^−6 cm/sec | 6.8 10^−6 cm s^−1 | more than 75% | 806 ± 388 | 853 ± 90 | 332 ± 12 | 10 | 64 | 2.5 | 98 | 93 | 18.6 10^−6 cm/sec | 46.5 10^−6 cm/sec | Mean B/P ratio ([6]; alone, 1.0 h): 0.08; Mean Brain Con ([6]; alone, 1.0 h): 26.3 ng/g; Mean Plasma Conc. ([6]; alone, 1.0 h): 330 ng/mL; Mean Plasma Conc. ([6]; alone, 2.0 h): 5.3 ng/mL; Mean Brain Con ([6]; alone, 2.0 h, LLOQ 2.00 ng/mL, 10 mg/kg): below the quantification limit and BLQ; Brain concentration ([6]; compound by itself, 30 minutes): 26 ng/mL; Brain-to-plasma ratio ([6]; compound by itself, 30 minutes): 0.08; Mean Brain Con ([6]; pretreated with tariquidar (13 mg/kg, i.p.), 0.5 h): 137.0 ng/g; Mean B/P ratio [6, 8]: 0.80; Mean Plasma Conc. [6, 8]: 165.7 ng/mL; Mean Plasma Conc. ([6]; pretreated with tariquidar, 2.0 h): 5.0 ng/mL; Mean Brain Con ([6]; pretreated with tariquidar, 2.0 h, LLOQ 2.00 ng/mL): below the quantification limit and BLQ; Brain concentration ([6]; tariquidar group, 30 minutes): 137 ng/mL; Plasma Cmax (average) ([6]; with and without tariquidar): 2453 ng/mL; Plasma half-life ([6]; with and without tariquidar): ~ 0.25 hours |
